Laboratory results as given in the supplement of paper PMC4862054.

Experiments:
Test in all cases: normalised response (% of control), CellTox Green; higher = less cell death (100 = DMSO, 0 = benzethonium chloride kill control)
Conditions in all cases: incubation time: 72 h
[1] = tested on: BT-474
Method in brief: (§1)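 Each entry is the normalised signal at a single concentration within a series. The series comprised 5 concentrations in 10-fold steps over a compound-specific 10,000-fold range, placed in 384-well plates into which breast cancer cell lines were seeded as 20 µl suspension and incubated 72 h. CellTox Green (485/520 nm) fluorescence and then CellTiter-Glo luminescence were read, with signals normalised per plate to 0.1 % DMSO (100) and a positive kill control (0).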

[2] = tested on: BT-549
Method in brief: as §1

[3] = tested on: CAL-120
Method in brief: as §1

[4] = tested on: CAL-148
Method in brief: as §1

[5] = tested on: CAL-85-1
Method in brief: as §1

[6] = tested on: DU-4475
Method in brief: as §1

[7] = tested on: HCC1143
Method in brief: as §1

[8] = tested on: HCC1599
Method in brief: as §1

[9] = tested on: HDQ-P1
Method in brief: as §1

[10] = tested on: MCF-10A
Method in brief: as §1

[11] = tested on: MDA-MB-436
Method in brief: as §1

[12] = tested on: MDA-MB-453
Method in brief: as §1

[13] = tested on: MDA-MB-468
Method in brief: as §1

[14] = tested on: MFM-223
Method in brief: as §1

[15] = tested on: HCC1937
Method in brief: as §1

[16] = tested on: Hs578T
Method in brief: as §1

[17] = tested on: MDA-MB-231
Method in brief: as §1

Structure (SMILES) | normalised response [1] | normalised response [2] | normalised response [3] | normalised response [4] | normalised response [5] | normalised response [6] | normalised response [7] | normalised response [8] | normalised response [9] | normalised response [10] | normalised response [11] | normalised response [12] | normalised response [13] | normalised response [14] | normalised response [15] | normalised response [16] | normalised response [17]
COc1cc([C@@H]2c3cc4c(cc3[C@@H](O[C@@H]3O[C@@H]5CO[C@@H](C)O[C@H]5[C@H](O)[C@H]3O)[C@H]3COC(=O)[C@H]23)OCO4)cc(OC)c1O [Etoposide] (1000 nM) | 101% | 109% | 95.7% | 30.9% | 99.6% | 93.7% | 120% | 97% | 95.6% | 110% | 13.2% | 94.8% | 102% | 103% |  |  | 
C[C@]12CC[C@@H]3c4ccc(O)cc4C[C@@H](CCCCCCCCC[S+]([O-])CCCC(F)(F)C(F)(F)F)[C@H]3[C@@H]1CC[C@@H]2O (stereo partly specified) [Fulvestrant] (1000 nM) | 102% | 91.9% | 97.9% | 100% | 74.9% | 99.7% | 113% | 98% | 111% | 101% | 93% | 97.9% |  | 97.8% | 98.5% | 121% | 115%
O=P1(NCCCl)OCCCN1CCCl (stereo unspecified) [Ifosfamide] (10000 nM) | 70.9% | 77.5% | 100% | 95.8% | 133% | 94.9% | 99.9% | 93.6% | 101% |  | 82.4% | 104% | 193% | 95.7% |  | 54.2% | 89%
CC1(C)NC(=O)N(c2ccc([N+](=O)[O-])c(C(F)(F)F)c2)C1=O [Nilutamide] (10000 nM) | 98.8% | 107% | 101% | 101% | 83.5% | 104% |  | 102% | 98.1% | 79.5% | 102% | 97.3% | 115% | 96.2% | 92.1% | 102% | 105%
Cc1ccc(C(=O)Nc2ccc(CN3CCN(C)CC3)c(C(F)(F)F)c2)cc1C#Cc1cnc2cccnn12 [Ponatinib] (100 nM) | 97.9% | 92% | 99.1% | 104% | 105% | 99.3% | 107% | 97.4% | 95.6% | 72.1% | 102% | 105% | 96.7% | 98.7% | 92.2% |  | 97.6%
CNCc1ccc(-c2[nH]c3cc(F)cc4c3c2CCNC4=O)cc1 [Rucaparib] (1000 nM) | 95.8% | 115% | 97.2% | 100% | 71.2% | 95.3% | 104% | 96.6% | 71.8% | 84.3% | 60.3% | 103% |  | 84.5% | 76% | 110% | 100%
CNCc1ccc(-c2[nH]c3cc(F)cc4c3c2CCNC4=O)cc1 [Rucaparib] (10000 nM) | 96.9% | 112% | 98.4% | 88.9% | 129% | 97.5% | 74.6% | 93.7% | 105% | 83.3% | 75.7% | 101% | 160% | 97.1% | 84.9% |  | 98.5%
N[C@@H](CSC(c1ccccc1)(c1ccccc1)c1ccccc1)C(=O)O [S-trityl-L-cysteine] (4000 nM) | 101% | 104% | 97.9% | 98.3% | 100% | 101% | 87% | 95.5% | 62.2% | 116% | 105% | 101% | 136% |  | 85.1% | 106% | 
N[C@@H](CSC(c1ccccc1)(c1ccccc1)c1ccccc1)C(=O)O [S-trityl-L-cysteine] (40000 nM) | 103% | 121% | 105% | 92.2% | 98.6% | 103% | 132% | 114% | 115% | 112% | 107% | 113% | 124% | 91% |  | 126% | 122%
CN(N=O)C(=O)N[C@@H](C=O)[C@@H](O)[C@H](O)[C@H](O)CO [Streptozocin] (1000 nM) | 97.2% | 99.5% | 106% |  | 110% | 107% | 113% | 103% | 92.3% | 53.9% | 106% | 108% | 90.8% | 98.3% | 99.3% | 99% | 96.8%
O=C1CCC(N2C(=O)c3ccccc3C2=O)C(=O)N1 (stereo unspecified) [Thalidomide] (1000 nM) | 97.5% |  | 101% | 97.4% | 108% | 98.5% | 99% | 98.2% | 111% |  | 109% | 103% | 130% | 100% | 99% | 97.6% | 63.5%
O=C1CCC(N2C(=O)c3ccccc3C2=O)C(=O)N1 (stereo unspecified) [Thalidomide] (10000 nM) | 103% | 99.3% | 104% | 60.5% | 119% | 99.1% | 105% | 99.9% |  | 99% |  | 93.2% | 186% | 101% | 97.8% | 63.3% | 115%
